Data on 28 compounds can be found in patent US20220089592A1, “IMIDAZO[1,2-A]PYRIDINYL DERIVATIVES AS IRAK4 INHIBITORS” (priority 2019, published 2022).

The IC50 is the midpoint of a concentration-inhibition curve. High values mean weaker potency, low ones greater potency.

In experiment [1] the target is T1, IRAK4 (Homo sapiens, UniProt Q9NWZ3).
T1 sequence (Q9NWZ3 1-460): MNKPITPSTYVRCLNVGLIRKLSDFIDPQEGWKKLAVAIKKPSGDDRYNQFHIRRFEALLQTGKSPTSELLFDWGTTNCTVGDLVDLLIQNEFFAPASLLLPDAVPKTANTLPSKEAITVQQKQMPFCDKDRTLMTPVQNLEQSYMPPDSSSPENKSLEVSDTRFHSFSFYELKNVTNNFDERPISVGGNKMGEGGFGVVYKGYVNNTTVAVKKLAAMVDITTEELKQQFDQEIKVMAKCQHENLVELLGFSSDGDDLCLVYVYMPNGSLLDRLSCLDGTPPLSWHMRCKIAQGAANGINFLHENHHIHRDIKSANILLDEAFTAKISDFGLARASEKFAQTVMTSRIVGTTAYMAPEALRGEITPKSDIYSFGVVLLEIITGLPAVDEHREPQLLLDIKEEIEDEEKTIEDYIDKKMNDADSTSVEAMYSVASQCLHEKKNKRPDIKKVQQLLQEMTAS
Put plainly: 2-hour 1 mM ATP IRAK4 Biochemical assay (as above, but with 100 pM IRAK4 and 1 mM ATP). To be noted: IRAK4 MSD BIOCHEMICAL (1 mM ATP) IC50 (μM), 100 pM IRAK4, 2 hours. The gist of the method:
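MSD electrochemiluminescence read-out: biotinylated peptide product bound to streptavidin plates, probed with anti-P-Thr rabbit antibody and Sulfo-Tag goat anti-rabbit. Kinase reaction used 1 mM ATP and 100 pM IRAK4 over 2 hours before EDTA quench.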

The target in experiment [2] is T1, IRAK4. Description: 2-hour 10 μM ATP Biochemical Assay (MesoScale Detection format; IRAK4 phosphorylation of biotin labeled IRAK1 activation loop peptide). To be noted: IRAK4 MSD BIOCHEMICAL (10 μM ATP) IC50 (μM), 1 nM IRAK4, 2 hours. The gist of the method: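 Electrochemiluminescent MSD readout: after streptavidin capture, phosphothreonine on the biotin-labelled IRAK1 activation-loop peptide detected by rabbit antibody and Sulfo-Tag secondary. Phosphorylation ran 2 h with 10 μM ATP before EDTA quench.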

Consider `CCOc1cc2nc(C3CCOCC3)cn2cc1NC(=O)c1csc(CC)n1` [Example 202, N-(7-ethoxy-2-(tetrahydro-2H-pyran-4-yl)imidazo[1,2-a]pyridin-6-yl)-2-ethylthiazole-4-carboxamide], for which the IC50 at IRAK4 [1] turned out to be 0.004 µM; against IRAK4 [2] it was 0.002 µM.
For `CCOc1cc2nc(C3CCOCC3)cn2cc1NC(=O)c1csc(C2CC2)n1` [Example 203, 2-cyclopropyl-N-(7-ethoxy-2-(tetrahydro-2H-pyran-4-yl)imidazo[1,2-a]pyridin-6-yl)thiazole-4-carboxamide], in that order: 0.001 µM and 0.001 µM.
For `CCOc1cc2nc(C3CCOCC3)cn2cc1NC(=O)c1ccn(C)n1` [Example 204, N-(7-ethoxy-2-(tetrahydro-2H-pyran-4-yl)imidazo[1,2-a]pyridin-6-yl)-1-methyl-1H-pyrazole-3-carboxamide], in that order: 0.021 µM and 0.004 µM.
The corresponding values for `CCOc1cc2nc(C3CCOCC3)cn2cc1NC(=O)c1ccn(CC)n1` [Example 205, N-(7-ethoxy-2-(tetrahydro-2H-pyran-4-yl)imidazo[1,2-a]pyridin-6-yl)-1-ethyl-1H-pyrazole-3-carboxamide] are 0.012 µM and 0.003 µM.
As for `CCOc1cc2nc(C3CCOCC3)cn2cc1NC(=O)c1ccn(C(C)C)n1` [Example 206, N-(7-ethoxy-2-(tetrahydro-2H-pyran-4-yl)imidazo[1,2-a]pyridin-6-yl)-1-isopropyl-1H-pyrazole-3-carboxamide], the IC50 at IRAK4 [1] stood at 0.019 µM; at IRAK4 [2], 0.005 µM.
In the case of `CCOc1cc2nc(C3CCOCC3)cn2cc1NC(=O)c1ccn(C2CCCC2)n1` [Example 208, 1-cyclopentyl-N-(7-ethoxy-2-(tetrahydro-2H-pyran-4-yl)imidazo[1,2-a]pyridin-6-yl)-1H-pyrazole-3-carboxamide], the IC50 against IRAK4 [1] is 0.008 µM; against IRAK4 [2], 0.002 µM.
The corresponding values for `CCOc1cc2nc(C3CCOCC3)cn2cc1NC(=O)c1ccn(C2CC2(F)F)n1` (centres unmarked) [Example 209, 1-(2,2-difluorocyclopropyl)-N-(7-ethoxy-2-(tetrahydro-2H-pyran-4-yl)imidazo[1,2-a]pyridin-6-yl)-1H-pyrazole-3-carboxamide] are 0.009 µM and 0.005 µM.
For `CCOc1cc2nc(C3CCOCC3)cn2cc1NC(=O)c1cc(F)n(C)n1` [Example 210, N-(7-ethoxy-2-(tetrahydro-2H-pyran-4-yl)imidazo[1,2-a]pyridin-6-yl)-5-fluoro-1-methyl-1H-pyrazole-3-carboxamide], the IC50 is 0.038 µM against IRAK4 [1] and 0.015 µM against IRAK4 [2].
The corresponding values for `CCOc1cc2nc(C3CCOCC3)cn2cc1NC(=O)c1scc(C)c1OC` [Example 211, N-(7-ethoxy-2-(tetrahydro-2H-pyran-4-yl)imidazo[1,2-a]pyridin-6-yl)-3-methoxy-4-methylthiophene-2-carboxamide] are 0.022 µM and 0.007 µM.
For `CCOc1cc2nc(C3CCOCC3)cn2cc1NC(=O)c1ccccc1OC` [Example 213, N-(7-ethoxy-2-(tetrahydro-2H-pyran-4-yl)imidazo[1,2-a]pyridin-6-yl)-2-methoxybenzamide], in that order: 0.019 µM and 0.005 µM.
As to `CCOc1cc2nc(C3CCOCC3)cn2cc1NC(=O)c1cccc(C)c1F` [Example 214, N-(7-ethoxy-2-(tetrahydro-2H-pyran-4-yl)imidazo[1,2-a]pyridin-6-yl)-2-fluoro-3-methylbenzamide], the figures for the IC50 on IRAK4 [1] and on IRAK4 [2] were 0.007 µM and 0.003 µM, respectively.
The corresponding values for `CCOc1cc2nc(C3CCOCC3)cn2cc1NC(=O)c1cccc(OC)c1F` [Example 215, N-(7-ethoxy-2-(tetrahydro-2H-pyran-4-yl)imidazo[1,2-a]pyridin-6-yl)-2-fluoro-3-methoxybenzamide] are 0.037 µM and 0.008 µM.
The corresponding values for `CCOc1cc2nc(C3CCOCC3)cn2cc1NC(=O)c1ccccn1` [Example 216, N-(7-ethoxy-2-(tetrahydro-2H-pyran-4-yl)imidazo[1,2-a]pyridin-6-yl)picolinamide] are 0.023 µM and 0.007 µM.
Regarding `CCOc1cc2nc(C3CCOCC3)cn2cc1NC(=O)c1cccc(C(C)C)n1` [Example 218, N-(7-ethoxy-2-(tetrahydro-2H-pyran-4-yl)imidazo[1,2-a]pyridin-6-yl)-6-isopropylpicolinamide], the figures for the IC50 against IRAK4 [1] and at IRAK4 [2] were 0.002 µM and 0.001 µM, respectively.
For `CCOc1cc2nc(C3CCOCC3)cn2cc1NC(=O)c1ccc(F)cn1` [Example 219, N-(7-ethoxy-2-(tetrahydro-2H-pyran-4-yl)imidazo[1,2-a]pyridin-6-yl)-5-fluoropicolinamide], in that order: 0.055 µM and 0.007 µM.
The corresponding values for `CCOc1cc2nc(C3CCOCC3)cn2cc1NC(=O)c1cccc(OC(C)C)n1` [Example 220, N-(7-ethoxy-2-(tetrahydro-2H-pyran-4-yl)imidazo[1,2-a]pyridin-6-yl)-6-isopropoxypicolinamide] are 0.02 µM and 0.004 µM.
In the case of `CCOc1cc2nc(C3CCOCC3)cn2cc1NC(=O)c1scc2c1OCCO2` [Example 221, N-(7-ethoxy-2-(tetrahydro-2H-pyran-4-yl)imidazo[1,2-a]pyridin-6-yl)-2,3-dihydrothieno[3,4-b][1,4]dioxine-5-carboxamide], the IC50 is 0.011 µM on IRAK4 [1] and 0.001 µM on IRAK4 [2].
For `CCOc1cc2nc(C3CCOCC3)cn2cc1NC(=O)c1ccn2c1CCCC2` [Example 222, N-(7-ethoxy-2-(tetrahydro-2H-pyran-4-yl)imidazo[1,2-a]pyridin-6-yl)-5,6,7,8-tetrahydroindolizine-1-carboxamide], the IC50 against IRAK4 [1] came to 0.041 µM; on IRAK4 [2], 0.01 µM.
With `CCOc1cc2nc(C3CCOCC3)cn2cc1NC(=O)c1csc(C)n1` [Example 223, N-(7-ethoxy-2-(tetrahydro-2H-pyran-4-yl)imidazo[1,2-a]pyridin-6-yl)-2-methylthiazole-4-carboxamide], the IC50 at IRAK4 [1] was found to be 0.01 µM; against IRAK4 [2], 0.004 µM.
For `CCOc1cc2nc(C3CCOCC3)cn2cc1NC(=O)c1cccc(C)n1` [Example 224, N-(7-ethoxy-2-(tetrahydro-2H-pyran-4-yl)imidazo[1,2-a]pyridin-6-yl)-6-methylpicolinamide], in that order: 0.003 µM and 0.001 µM.
As for `CCOc1cc2nc(C3CCOCC3)cn2cc1NC(=O)c1ccn2c1CCC2` [Example 225, N-(7-ethoxy-2-(tetrahydro-2H-pyran-4-yl)imidazo[1,2-a]pyridin-6-yl)-2,3-dihydro-1H-pyrrolizine-7-carboxamide], the results for the IC50 against IRAK4 [1] and against IRAK4 [2] were 0.029 µM and 0.009 µM, respectively.
The corresponding values for `CCOc1cc2nc(C3CCOCC3)cn2cc1NC(=O)c1cccc(C(C)(F)F)n1` [Example 227, 6-(1,1-difluoroethyl)-N-(7-ethoxy-2-(tetrahydro-2H-pyran-4-yl)imidazo[1,2-a]pyridin-6-yl)picolinamide] are 0.001 µM and 0.001 µM.
On to `CCOc1cc2nc(C3CCOCC3)cn2cc1NC(=O)c1cccc(C(F)F)c1` [Example 228, 3-(difluoromethyl)-N-(7-ethoxy-2-(tetrahydro-2H-pyran-4-yl)imidazo[1,2-a]pyridin-6-yl)benzamide], for which the IC50 on IRAK4 [1] was found to be 0.056 µM; at IRAK4 [2], 0.013 µM.
For the compound `CCOc1cc2nc(C3CCOCC3)cn2cc1NC(=O)c1ccn(C(F)F)n1` [Example 230, 1-(difluoromethyl)-N-(7-ethoxy-2-(tetrahydro-2H-pyran-4-yl)imidazo[1,2-a]pyridin-6-yl)-1H-pyrazole-3-carboxamide], the IC50 on IRAK4 [1] is 0.003 µM; against IRAK4 [2] it was 0.001 µM.
The corresponding values for `CCOc1cc2nc(C3CCOCC3)cn2cc1NC(=O)c1csc(C(F)(F)F)n1` [Example 231, N-(7-ethoxy-2-(tetrahydro-2H-pyran-4-yl)imidazo[1,2-a]pyridin-6-yl)-2-(trifluoromethyl)thiazole-4-carboxamide] are 0.007 µM and 0.001 µM.
The corresponding values for `COCCCc1cn2cc(NC(=O)c3cccc(C(F)F)n3)ccc2n1` [Example 234, 6-(difluoromethyl)-N-(2-(3-methoxypropyl)imidazo[1,2-a]pyridin-6-yl)picolinamide] are 0.049 µM and 0.011 µM.
`CCOc1cc2nc(C3CCOCC3)cn2cc1NC(=O)c1cccc(OC2CCC2)n1` [Example 236, 6-cyclobutoxy-N-(7-ethoxy-2-(tetrahydro-2H-pyran-4-yl)imidazo[1,2-a]pyridin-6-yl)picolinamide]: the IC50 on IRAK4 [1] came out at 0.019 µM; at IRAK4 [2], 0.006 µM.
On to `CCOc1cc2nc(C3CCOCC3)cn2cc1NC(=O)c1cccc(N(C)C)n1` [Example 237, 6-(dimethylamino)-N-(7-ethoxy-2-(tetrahydro-2H-pyran-4-yl)imidazo[1,2-a]pyridin-6-yl)picolinamide], for which the figures for the IC50 on IRAK4 [1] and at IRAK4 [2] were 0.005 µM and 0.001 µM, respectively.
